For this assay, the system named is MRSA MW-2. Nature of the assay: Prophylactic activity on pigskin. In kind it is cell-based, Staphylococcus aureus. As to conditions: treatment dried 1-hour, about 10^3 CFU for 1-hour; chitosan-arginine 60 μg/cm^2 in 70% ethanol (21 kDa, 29% functionalized, FIG. 24); hydrogen peroxide 3%.

Take `CCO` [70% ethanol, ethanol]: the “prophylactic activity, qualitative CFU recovered from treated skin surface” value was “no prophylactic activity”.
Take `OO` [hydrogen peroxide]: the “prophylactic activity, qualitative CFU recovered from treated skin surface” value was “no prophylactic activity”.
